Where two headings read alike, the source gives them in different places.
Assays:
PARP1 [1] = molecular target: PARP1 (Homo sapiens, UniProt P09874); experiment: In vitro PARP1 enzymatic activity (ELISA, biotinylated NAD+, luminescence); format: biochemical
Method: The inhibition of the tested compounds on PARP1 enzymatic activity was determined by ELISA in 96-well plates. Each well was precoated with histone (20 μg/mL) diluted in 100 μL of PBS buffer (10 mM NaH2PO4, 100 mM Na2HPO4, 150 mM NaCl, pH 7.4) by incubation at 4 °C overnight. […] The reaction was initiated by the addition of 20 μL of PARP1 (50 ng/well) at 30 °C for 1 h. Then the reaction solution was added to 50 μL of streptavidin conjugated HRP. The assay was performed at 30 °C for an additional 30 min. Finally, 100 μL of solution (H2O2 and luminol in citrate buffer 0.1 M, pH 5.4) was added and luminescent signal was measured using a multiwell spectrophotometer (Molecular Devices SpectraMax M5 microplate reader).

BRD4 [2] = conditions: cited from earlier work
BRD4 [3] = molecular target: BRD4 (Homo sapiens, UniProt O60885); experiment: BRD TR-FRET assay, BRD4; format: binding
Method: The assay was performed by TR-FRET technology using a BRD and its corresponding ligand (BET). The TR-FRET signal from the assay is correlated with the amount of ligand binding to the bromodomain. All of the binding reactions were conducted at room temperature. The 20 μL reaction mixture in Assay Buffer contains either bromodomains, BET Ligand, and the indicated amount of inhibitor. For the negative control (blank), 5 μL of the assay buffer was added instead of the BET ligand. The reaction mixture was incubated for 120 min. After the incubation with the ligand, the TR-FRET signal was measured using a Tecan Infinite M1000 plate reader.

PARP1 [4] = system: PARP1; design: method as in PMID 34813314, PMID 35091172, PMID 33532187, PMID 35442700, PMID 24481311; conditions: known dual PARP1-BRD4 inhibitors ref 15-19; cited from earlier work
MDA-MB-231 = system: MDA-MB-231; design: method as in PMID 34813314, PMID 35091172, PMID 33532187, PMID 35442700, PMID 24481311; conditions: 3 days; breast cancer ref 15-19; cited from earlier work
MDA-MB-468 = system: MDA-MB-468; design: method as in PMID 34813314, PMID 35091172, PMID 33532187, PMID 35442700, PMID 24481311; conditions: 3 days; breast cancer ref 15-19; cited from earlier work
MCF-7 cells = experiment: Cell viability (MTT), MCF-7; format: cell-based; conditions: Homo sapiens, MCF7, 96 h; 4-day treatment, wild-type BRCA
Method: (§1) MDA-MB-231, MDA-MB-436, and MCF-7 cells were seeded into 96-well plates with the number of 5 × 10^3 in each cell and allowed to incubate for 24 h. Subsequently, various concentrations of the test compounds (ranging from 100 to 0.78 μM with twice gradient dilution) were introduced. After 4 days of incubation, MTT solution was applied, and the cells were incubated for an additional 4 h. Following the removal of the supernatant, the violet crystals were dissolved in 200 μL of DMSO, and the absorbance was measured at 570 nm.

MDA-MB-231 cells = experiment: Cell viability (MTT), MDA-MB-231; format: cell-based; conditions: Homo sapiens, MDA-MB-231, 96 h; 4-day treatment, wild-type BRCA
Method: as §1

MDA-MB-436 cells = experiment: Cell viability (MTT), MDA-MB-436; format: cell-based; conditions: Homo sapiens, MDA-MB-436, 96 h; 4-day treatment, BRCA mutant
Method: as §1

SW1990 cell = system: SW1990 cell; design: method as in PMID 34813314, PMID 35091172, PMID 33532187, PMID 35442700, PMID 24481311; conditions: 4 days; pancreatic cancer ref 15-19; cited from earlier work
CFPAC-1 cell = system: CFPAC-1 cell; design: method as in PMID 34813314, PMID 35091172, PMID 33532187, PMID 35442700, PMID 24481311; conditions: 4 days; pancreatic cancer ref 15-19; cited from earlier work
Capan-1 cell = system: Capan-1 cell; design: method as in PMID 34813314, PMID 35091172, PMID 33532187, PMID 35442700, PMID 24481311; conditions: 4 days; pancreatic cancer ref 15-19; cited from earlier work
[5] = Solubility observed during activity testing; format: physicochemical; conditions: compared with HF2
Method: The inhibitory effects of both enzymes were measured for HF1 and HF2. […] The large discrepancy in BRD4 activities could be attributed to the nonplanar scaffold of HF1, which appears to fit more effectively into the hydrophobic environment formed by Val87, Phe83, and Ile146 (Figure 5B, right). […] Before proceeding further, we made the decision to examine PJ34, a potent and nonselective PARP1 inhibitor,[13] to assess its impact on BRD4 inhibition. […] Given the strong PARP1 activity and relatively low micromolar BRD4 activity of PJ34 relative to HF1 and HF2, we contemplated whether substituting PJ34’s scaffold with that of HF1 could synergistically enhance BRD4 affinity while maintaining strong PARP1 affinity.

BRD4 [6] = experiment: Western blot, BRD4 expression in MCF-7 cells; format: cell-based; conditions: MCF-7, 48 h treatment
Method: (§2) Following a 48 h treatment, cellular proteins were extracted using RIPA cell lysis buffer containing protease and phosphatase inhibitor cocktail. The protein concentration was assessed by using a BCA assay. Subsequently, equal amounts of these proteins were loaded onto an SDS-PAGE gel and transferred onto a PVDF membrane. The protein-loaded membrane was then blocked using a commercial blocking solution (Beyotime, China) and sequentially incubated with primary and secondary antibodies. Protein bands were visualized using an ECL chemiluminescence kit and quantified using ImageJ software.

PARP1 [7] = experiment: Western blot, PARP1 expression in MCF-7 cells; format: cell-based; conditions: MCF-7, 48 h treatment
Method: as §2

[8] = known dual PARP1-BRD4 inhibitors ref 15-19

Sequence of PARP1 (Homo sapiens, UniProt P09874) (P09874 whole entry): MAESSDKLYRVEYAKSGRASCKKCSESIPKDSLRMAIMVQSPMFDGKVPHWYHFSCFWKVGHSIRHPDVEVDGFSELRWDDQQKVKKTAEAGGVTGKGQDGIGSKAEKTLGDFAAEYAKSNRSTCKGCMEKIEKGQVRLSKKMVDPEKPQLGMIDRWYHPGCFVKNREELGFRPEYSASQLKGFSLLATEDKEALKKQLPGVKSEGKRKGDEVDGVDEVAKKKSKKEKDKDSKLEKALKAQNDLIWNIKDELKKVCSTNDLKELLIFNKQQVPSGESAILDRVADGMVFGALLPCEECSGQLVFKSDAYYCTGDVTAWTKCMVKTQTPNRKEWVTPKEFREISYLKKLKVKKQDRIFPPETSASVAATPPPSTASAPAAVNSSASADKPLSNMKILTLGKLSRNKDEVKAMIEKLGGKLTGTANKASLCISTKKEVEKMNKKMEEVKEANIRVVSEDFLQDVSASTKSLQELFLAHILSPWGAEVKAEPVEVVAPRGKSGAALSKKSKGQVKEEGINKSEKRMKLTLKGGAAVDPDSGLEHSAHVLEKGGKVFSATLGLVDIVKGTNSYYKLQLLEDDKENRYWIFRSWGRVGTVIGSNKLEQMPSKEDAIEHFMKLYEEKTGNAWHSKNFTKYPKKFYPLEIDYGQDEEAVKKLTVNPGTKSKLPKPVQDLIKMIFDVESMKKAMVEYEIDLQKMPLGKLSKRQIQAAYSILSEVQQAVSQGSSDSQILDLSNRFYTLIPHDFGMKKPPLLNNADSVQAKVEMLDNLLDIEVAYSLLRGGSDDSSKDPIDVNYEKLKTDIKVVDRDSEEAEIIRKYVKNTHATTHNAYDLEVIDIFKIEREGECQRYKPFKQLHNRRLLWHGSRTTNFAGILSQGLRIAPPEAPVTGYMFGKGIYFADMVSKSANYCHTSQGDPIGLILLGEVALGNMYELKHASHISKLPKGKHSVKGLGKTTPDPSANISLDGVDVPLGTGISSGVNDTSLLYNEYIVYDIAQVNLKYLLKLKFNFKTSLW

For `COc1ccccc1S(=O)(=O)Nc1ccc2c(c1)CN(C)C(=O)N2` [PFI-1, reference compound], the inhibition at 10 µM (PARP1 [1]; 10 μM, read-out: PARP1 inhibition rate) is given as 10% and the IC50 (BRD4 [2]) is given as 0.22 µM.

In the case of `CN(C)CC(=O)Nc1ccc2[nH]c(=O)c3c(c2c1)CCCC3` [HF3, 2-(dimethylamino)-N-(6-oxo-5,6,7,8,9,10-hexahydrophenanthridin-2-yl)acetamide], the IC50 (PARP1 [1]) is reported as 0.016 µM, the IC50 (BRD4 [3]) is reported as 28.8 ± 6.99 µM and the IC50 (BRD4 [3]; value of the text) is reported as ~28 µM.

In the case of `COc1cc(OC)c2c(=O)[nH]c(-c3cc(C)c(OCCO)c(C)c3)nc2c1` [RVX-208, apabetalone, reference compound], the “activity against PARP1” value (PARP1 [1]; at 10 μM) is reported as “no activity”.

In the case of `COc1cc(OC)c2c(=O)[nH]c(-c3cccc(Cc4n[nH]c(=O)c5ccccc45)c3)nc2c1` [BP44], the IC50 (PARP1 [4]) is listed as 0.197 µM, the IC50 (BRD4 [2]; [8]) is listed as 0.238 µM and the IC50 (MDA-MB-231) is listed as 6.61 ± 0.58 µM. The IC50 (MDA-MB-468) was 3.01 ± 0.83 µM.

For `Cc1cc(S(=O)(=O)Nc2ccc3[nH]c(=O)c4ccccc4c3c2)ccc1F` [HF2], the IC50 (PARP1 [1]) was 0.339 ± 0.086 µM and the IC50 (BRD4 [3]) was 32.6 ± 6.34 µM.

In the case of `COc1cc(OC)c2c(=O)[nH]c(-c3ccc(OCCOc4ccccc4C(N)=O)cc3)nc2c1` [ADTL-BPI1901], the IC50 (PARP1 [4]) is listed as 4.6 µM, the IC50 (BRD4 [2]; [8]) is listed as 0.4 µM and the IC50 (MDA-MB-231) is listed as 15.6 ± 1.72 µM. The IC50 (MDA-MB-468) was 6.42 ± 1.31 µM.

Compound `CN(C)CC(=O)Nc1ccc2[nH]c(=O)c3ccccc3c2c1` [PJ34, 2-(dimethylamino)-N-(6-oxo-5,6-dihydrophenanthridin-2-yl)acetamide, reference compound] has an IC50 (BRD4 [3]) of 2.07 ± 0.588 µM.

For `O=C(c1cc(Cc2n[nH]c(=O)c3ccccc23)ccc1F)N1CCN(C(=O)C2CC2)CC1` [Olaparib, olaparib, reference compound], the IC50 (MCF-7 cells) was 27.2 ± 3.5 µM, the IC50 (MDA-MB-231 cells) was 13.9 ± 2.6 µM and the IC50 (MDA-MB-436 cells) was 2.2 µM.

In the case of `Cc1noc(C)c1-c1ccc2c(c1)C(c1ccccc1)N(Cc1nc3c(C(N)=O)cccc3[nH]1)C(=O)N2C` (stereo not shown) [III-7], the IC50 (PARP1 [4]) is listed as 0.049 µM, the IC50 (BRD4 [2]; [8]) is listed as 0.202 µM and the IC50 (SW1990 cell) is listed as 1.34 ± 0.16 µM. For the same compound, the IC50 (CFPAC-1 cell) was 1.31 ± 0.11 µM and the IC50 (Capan-1 cell) was 1.71 ± 0.21 µM.

In the case of `Cc1cc(S(=O)(=O)Nc2ccc3[nH]c(=O)c4c(c3c2)CCCC4)ccc1F` [HF1, 4-fluoro-3-methyl-N-(6-oxo-5,6,7,8,9,10-hexahydrophenanthridin-2-yl)benzenesulfonamide], the IC50 (PARP1 [1]) is reported as 0.094 µM, the IC50 (BRD4 [3]) is reported as 3.56 ± 0.951 µM and the “BRD4 potency relative to HF2” value (BRD4 [3]; more potent than HF2) is reported as 10 times. It also gave an IC50 (BRD4 [3]; value of the text) of 3.5 µM, an IC50 (MCF-7 cells) of 11.4 µM and an IC50 (MDA-MB-231 cells) of 31.9 µM. The “solubility during activity testing” value [5] was “higher solubility”.

For `CC[C@@H]1C(=O)N(C)c2cnc(N(C)c3ccc(-c4nc5c(C(N)=O)cccc5[nH]4)cc3OC)nc2N1C1CCCC1` [III-16], the IC50 (PARP1 [4]) is given as 0.013 µM, the IC50 (BRD4 [2]; [8]) is given as 0.101 µM and the IC50 (SW1990 cell) is given as 0.98 ± 0.13 µM.

Compound `CCc1cc2cc(NC(=O)CN(C)C)ccc2[nH]c1=O` [HF5, 2-(dimethylamino)-N-(3-ethyl-2-oxo-1,2-dihydroquinolin-6-yl)acetamide] has an IC50 (PARP1 [1]) of 0.736 µM, an IC50 (BRD4 [3]) of 34.3 ± 7.9 µM and an IC50 (BRD4 [3]; value of the text) of ~34.3 µM.

`Cc1sc2c(c1C)C(c1ccc(Cl)cc1)=N[C@@H](CC(=O)OC(C)(C)C)c1nnc(C)n1-2` [JQ1, reference compound] showed an IC50 (MCF-7 cells) of 0.9 ± 0.1 µM, an IC50 (MDA-MB-231 cells) of 1.2 ± 0.4 µM and an IC50 (MDA-MB-436 cells) of 4.7 ± 1.9 µM. For the same compound, the BRD4 expression (BRD4 [6]) was “significantly enhances its levels” and the PARP1 expression (PARP1 [7]) was “significant increase”.

— article PMC11480993, “Combining Data-Driven and Structure-Based Approaches in Designing Dual PARP1-BRD4 Inhibitors for Breast Cancer Treatment” (Journal of Chemical Information and Modeling, 2024)
